This is an account of results in patent US10179800B2, “Crystalline forms of S-[4-(3-fluoro-3-methylbutyryloxy)but-2-ynyl] 6-α,9-α-difluoro-17-α-(furan-2-yl)carbonyloxy-11-β-hydroxy-16-α-methyl-3-oxoandrosta-1,4-diene-17-β-carbothioate” (Sun Pharma Advanced Research Company Limited, priority 2015, dated 2019).

The data set is described as follows: Stability of the solid form upon storage. As to conditions: storage at ambient conditions. Format: physicochemical.

Take `C[C@@H]1CC2C3C[C@H](F)C4=CC(=O)C=C[C@]4(C)[C@@]3(F)[C@@H](O)C[C@]2(C)[C@@]1(OC(=O)c1ccco1)C(=O)SCC#CCOC(=O)CC(C)(C)F` (stereo partly drawn) [amorphous form, S-[4-(3-fluoro-3-methylbutyryloxy)but-2-ynyl]6α,9α-difluoro-17α-(furan-2-yl)carbonyloxy-11β-hydroxy-16α-methyl-3-oxoandrosta-1,4-diene-17β-carbothioate]: the stability upon storage result is listed as “unstable upon storage even at ambient conditions”.
